Reference: patent publication US12161722B2, “Bifunctional heterocyclic compound having BTK degradation function via ubiquitin proteasome pathway, and use thereof” (KOREA RESEARCH INSTITUTE OF CHEMICAL TECHNOLOGY, priority 2021, dated 2024)

Target: T1, WT BTK protein (Homo sapiens, UniProt Q06187)
T1 construct: measured for intracellular BTK protein levels by Western blotting; endogenous in cells; host or cells: TMD-8 or RAMOS cells
Assay: BTK protein degradation assay (Western blotting), WT BTK
Format: cell-based
Conditions: concentration range accounting for 50% degradation of WT BTK protein, TMD-8 or RAMOS cells, 24 hours
Summary of the method: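 BTK levels were read by Western blotting (GAPDH and β-actin normalisers) in RIPA lysates of TMD-8 cells exposed to compounds for 24 h at 1×10^6 cells/mL. Results scored in ranges of the concentration producing 50% loss of WT BTK.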

T1 sequence (Q06187 whole entry): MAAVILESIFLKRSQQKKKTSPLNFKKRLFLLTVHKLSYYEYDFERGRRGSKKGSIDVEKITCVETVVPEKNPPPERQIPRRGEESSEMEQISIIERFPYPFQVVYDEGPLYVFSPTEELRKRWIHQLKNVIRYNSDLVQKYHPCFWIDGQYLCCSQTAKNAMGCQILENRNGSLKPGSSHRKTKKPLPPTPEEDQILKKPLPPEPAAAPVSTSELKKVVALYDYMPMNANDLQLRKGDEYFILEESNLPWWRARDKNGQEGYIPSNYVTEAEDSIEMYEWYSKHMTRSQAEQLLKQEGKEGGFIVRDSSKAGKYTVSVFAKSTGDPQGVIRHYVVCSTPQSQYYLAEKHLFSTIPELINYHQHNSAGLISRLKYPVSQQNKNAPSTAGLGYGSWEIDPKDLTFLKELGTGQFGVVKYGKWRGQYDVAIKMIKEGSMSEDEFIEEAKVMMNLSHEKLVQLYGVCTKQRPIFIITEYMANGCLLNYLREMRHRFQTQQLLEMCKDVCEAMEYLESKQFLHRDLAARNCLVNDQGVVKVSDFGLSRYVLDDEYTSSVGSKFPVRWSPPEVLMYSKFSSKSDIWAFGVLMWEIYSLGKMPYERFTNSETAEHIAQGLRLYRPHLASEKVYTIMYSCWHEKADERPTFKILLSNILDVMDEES

DC50 [nM] | Compound
0.1 to 10 | Cc1cccc(C)c1Nc1nn(C)c2nc(Nc3cnc(N4CCN(CC5CCN(c6ccc7c(c6)C(=O)N(C6CCC(=O)NC6=O)C7=O)CC5)CC4)nc3)ncc12 (centres unmarked) [Compound 171, 5-(4-((4-(5-((3-((2,6-Dimethylphenyl)amino)-1-methyl-1H-pyrazolo[3,4-d]pyrimidin-6-yl)amino)pyrimidin-2-yl)piperazin-1-yl)methyl)piperidin-1-yl)-2-(2,6-dioxopiperidin-3-yl)isoindoline-1,3-dione]
0.1 to 10 | Cc1cccc(C)c1Nc1nn(C)c2nc(Nc3ccc4c(c3)CCN(CC3CCN(c5ccc6c(c5)C(=O)N(C5CCC(=O)NC5=O)C6=O)CC3)C4)ncc12 (centres unmarked) [Compound 172, 5-(4-((6-((3-((2,6-Dimethylphenyl)amino)-1-methyl-1H-pyrazolo[3,4-d]pyrimidin-6-yl)amino)-3,4-dihydroisoquinolin-2 (1H)-yl)methyl)piperidin-1-yl)-2-(2,6-dioxopiperidin-3-yl)isoindoline-1,3-dione]
0.1 to 10 | Cc1cccc(C)c1Nc1nn(C)c2nc(Nc3ccc(C4CN(CC5CCN(c6ccc7c(c6)C(=O)N(C6CCC(=O)NC6=O)C7=O)CC5)C4)cc3)ncc12 (centres unmarked) [Compound 175, 5-(4-((3-(4-((3-((2,6-Dimethylphenyl)amino)-1-methyl-1H-pyrazolo[3,4-d]pyrimidin-6-yl)amino)phenyl)azetidin-1-yl)methyl)piperidin-1-yl)-2-(2,6-dioxopiperidin-3-yl)isoindoline-1,3-dione]
0.1 to 10 | Cc1cccc(C)c1Nc1nn(C)c2nc(Nc3ccc(C4CN(C[C@H]5CCN(c6ccc7c(c6)C(=O)N(C6CCC(=O)NC6=O)C7=O)C5)C4)cc3)ncc12 (stereo partly drawn) [Compound 176, 5-((R)-3-((3-(4-((3-((2,6-dimethylphenyl)amino)-1-methyl-1H-pyrazolo[3,4-d]pyrimidin-6-yl)amino)phenyl)azetidin-1-yl)methyl)pyrrolidin-1-yl)-2-(2,6-dioxopiperidin-3-yl)isoindoline-1,3-dione]
0.1 to 10 | Cc1cccc(C)c1Nc1nn(C)c2nc(Nc3ccc(N4CCN(C[C@H]5CCN(c6ccc7c(c6)C(=O)N(C6CCC(=O)NC6=O)C7=O)C5)CC4)cc3)ncc12 (stereo partly drawn) [Compound 179, 5-((R)-3-((4-(4-((3-((2,6-Dimethylphenyl)amino)-1-methyl-1H-pyrazolo[3,4-d]pyrimidin-6-yl)amino)phenyl)piperazin-1-yl)methyl)pyrrolidin-1-yl)-2-(2,6-dioxopiperidin-3-yl)isoindoline-1,3-dione]
0.1 to 10 | Cc1cccc(C)c1Nc1nn(C)c2nc(Nc3ccc(N4CCN(C[C@@H]5CCN(c6ccc7c(c6)C(=O)N(C6CCC(=O)NC6=O)C7=O)C5)CC4)cc3)ncc12 (stereo partly drawn) [Compound 180, 5-((S)-3-((4-(4-((3-((2,6-Dimethylphenyl)amino)-1-methyl-1H-pyrazolo[3,4-d]pyrimidin-6-yl)amino)phenyl)piperazin-1-yl)methyl)pyrrolidin-1-yl)-2-(2,6-dioxopiperidin-3-yl)isoindoline-1,3-dione]
0.1 to 10 | Cc1cccc(C)c1Nc1nn(C)c2nc(Nc3ccc(N4CCN(CC5CN(c6ccc7c(c6)C(=O)N(C6CCC(=O)NC6=O)C7=O)C5)C[C@@H]4C)cc3)ncc12 (stereo partly drawn) [Compound 183, 5-(3-(((S)-4-(4-((3-((2,6-Dimethylphenyl)amino)-1-methyl-1H-pyrazolo[3,4-d]pyrimidin-6-yl)amino)phenyl)-3-methylpiperazin-1-yl)methyl)azetidin-1-yl)-2-(2,6-dioxopiperidin-3-yl)isoindoline-1,3-dione]
0.1 to 10 | Cc1cccc(C)c1Nc1nn(C)c2nc(Nc3ccc(N4CCN(CC5CN(c6ccc7c(c6)C(=O)N(C6CCC(=O)NC6=O)C7=O)C5)C[C@H]4C)cc3)ncc12 (stereo partly drawn) [Compound 184, 5-(3-(((R)-4-(4-((3-((2,6-Dimethylphenyl)amino)-1-methyl-1H-pyrazolo[3,4-d]pyrimidin-6-yl)amino)phenyl)-3-methylpiperazin-1-yl)methyl)azetidin-1-yl)-2-(2,6-dioxopiperidin-3-yl)isoindoline-1,3-dione]
0.1 to 10 | Cc1cccc(C)c1Nc1nn(C)c2nc(Nc3ccc(N4CCN(CC5CN(c6ccc7c(c6)C(=O)N(C6CCC(=O)NC6=O)C7=O)C5)[C@@H](C)C4)cc3)ncc12 (stereo partly drawn) [Compound 185, 5-(3-(((S)-4-(4-((3-((2,6-Dimethylphenyl)amino)-1-methyl-1H-pyrazolo[3,4-d]pyrimidin-6-yl)amino)phenyl)-2-methylpiperazin-1-yl)methyl)azetidin-1-yl)-2-(2,6-dioxopiperidin-3-yl)isoindoline-1,3-dione]
0.1 to 10 | Cc1cccc(C)c1Nc1nn(C)c2nc(Nc3ccc(N4CCN(CC5CN(c6ccc7c(c6)C(=O)N(C6CCC(=O)NC6=O)C7=O)C5)[C@H](C)C4)cc3)ncc12 (stereo partly drawn) [Compound 186, 5-(3-(((R)-4-(4-((3-((2,6-Dimethylphenyl)amino)-1-methyl-1H-pyrazolo[3,4-d]pyrimidin-6-yl)amino)phenyl)-2-methylpiperazin-1-yl)methyl)azetidin-1-yl)-2-(2,6-dioxopiperidin-3-yl)isoindoline-1,3-dione]

Continued, compound first:

Compound | DC50 [nM]
Cc1cccc(C)c1Nc1nn(C)c2nc(Nc3ccc(C4CCN(CC5CN(c6ccc7c(c6)C(=O)N(C6CCC(=O)NC6=O)C7=O)C5)CC4)cc3)ncc12 (centres unmarked) [Compound 169, 5-(3-((4-(4-((3-((2,6-Dimethylphenyl)amino)-1-methyl-1H-pyrazolo[3,4-d]pyrimidin-6-yl)amino)phenyl)piperidin-1-yl)methyl)azetidin-1-yl)-2-(2,6-dioxopiperidin-3-yl)isoindoline-1,3-dione] | 0.1 to 10
Cc1cccc(C)c1Nc1nn(C)c2nc(Nc3ccc(C4CCN(CC5CCN(c6ccc7c(n6)CN(C6CCC(=O)NC6=O)C7=O)CC5)CC4)cc3)ncc12 (centres unmarked) [Compound 170, 3-(2-(4-((4-(4-((3-((2,6-Dimethylphenyl)amino)-1-methyl-1H-pyrazolo[3,4-d]pyrimidin-6-yl)amino)phenyl)piperidin-1-yl)methyl)piperidin-1-yl)-5-oxo-5,7-dihydro-6H-pyrrolo[3,4-b]pyridin-6-yl)piperidin-2,6-one] | 0.1 to 10
Cc1cccc(C)c1Nc1nn(C)c2nc(Nc3ccc4c(c3)CCN(C[C@H]3CCN(c5ccc6c(c5)C(=O)N(C5CCC(=O)NC5=O)C6=O)C3)C4)ncc12 (stereo partly drawn) [Compound 173, 5-((R)-3-((6-((3-((2,6-Dimethylphenyl)amino)-1-methyl-1H-pyrazolo[3,4-d]pyrimidin-6-yl)amino)-3,4-dihydroisoquinolin-2 (1H)-yl)methyl)pyrrolidin-1-yl)-2-(2,6-dioxopiperidin-3-yl)isoindoline-1,3-dione] | 0.1 to 10
Cc1cccc(C)c1Nc1nn(C)c2nc(Nc3ccc4c(c3)CCN(C[C@@H]3CCN(c5ccc6c(c5)C(=O)N(C5CCC(=O)NC5=O)C6=O)C3)C4)ncc12 (stereo partly drawn) [Compound 174, 5-((S)-3-((6-((3-((2,6-Dimethylphenyl)amino)-1-methyl-1H-pyrazolo[3,4-d]pyrimidin-6-yl)amino)-3,4-dihydroisoquinolin-2 (1H)-yl)methyl)pyrrolidin-1-yl)-2-(2,6-dioxopiperidin-3-yl)isoindoline-1,3-dione] | 0.1 to 10
Cc1cccc(C)c1Nc1nn(C)c2nc(Nc3ccc(C4CN(C[C@@H]5CCN(c6ccc7c(c6)C(=O)N(C6CCC(=O)NC6=O)C7=O)C5)C4)cc3)ncc12 (stereo partly drawn) [Compound 177, 5-((S)-3-((3-(4-((3-((2,6-Dimethylphenyl)amino)-1-methyl-1H-pyrazolo[3,4-d]pyrimidin-6-yl)amino)phenyl)azetidin-1-yl)methyl)pyrrolidin-1-yl)-2-(2,6-dioxopiperidin-3-yl)isoindoline-1,3-dione] | 0.1 to 10
Cc1cccc(C)c1Nc1nn(C)c2nc(Nc3ccc4c(c3)CN(CC(O)CN3CCN(c5ccc6c(c5)C(=O)N(C5CCC(=O)NC5=O)C6=O)CC3)CC4)ncc12 (centres unmarked) [Compound 178, 5-(4-(3-(7-((3-((2,6-Dimethylphenyl)amino)-1-methyl-1H-pyrazolo[3,4-d]pyrimidin-6-yl)amino)-3,4-dihydroisoquinolin-2 (1H)-yl)-2-hydroxypropyl)piperazin-1-yl)-2-(2,6-dioxopiperidin-3-yl)isoindoline-1,3-dione] | 0.1 to 10
Cc1cccc(C)c1Nc1nn(C)c2nc(Nc3ccc(N4CCN(CC5CN(c6ccc7c(c6)C(=O)N(C6CCC(=O)NC6=O)C7=O)C5)CC4)cc3)ncc12 (centres unmarked) [Compound 181, 5-(3-((4-(4-((3-((2,6-Dimethylphenyl)amino)-1-methyl-1H-pyrazolo[3,4-d]pyrimidin-6-yl)amino)phenyl)piperazin-1-yl)methyl)azetidin-1-yl)-2-(2,6-dioxopiperidin-3-yl)isoindoline-1,3-dione] | 0.1 to 10
Cc1cccc(C)c1Nc1nn(C)c2nc(Nc3ccc(C4CN(CC5CN(c6ccc7c(c6)C(=O)N(C6CCC(=O)NC6=O)C7=O)C5)C4)cc3)ncc12 (centres unmarked) [Compound 182, 5-(3-((3-(4-((3-((2,6-Dimethylphenyl)amino)-1-methyl-1H-pyrazolo[3,4-d]pyrimidin-6-yl)amino)phenyl)azetidin-1-yl)methyl)azetidin-1-yl)-2-(2,6-dioxopiperidin-3-yl)isoindoline-1,3-dione] | 0.1 to 10
Cc1cccc(C)c1Nc1nn(C)c2nc(Nc3ccc(N4CCN(CC5CN(c6ccc7c(n6)CN(C6CCC(=O)NC6=O)C7=O)C5)CC4)cc3)ncc12 (centres unmarked) [Compound 187, 3-(2-(3-((4-(4-((3-((2,6-Dimethylphenyl)amino)-1-methyl-1H-pyrazolo[3,4-d]pyrimidin-6-yl)amino)phenyl)piperazin-1-yl)methyl)azetidin-1-yl)-5-oxo-5,7-dihydro-6H-pyrrolo[3,4-b]pyridin-6-yl)piperidin-2,6-one] | 0.1 to 10
Cc1cccc(C)c1Nc1nn(C)c2nc(Nc3ccc(N4CCN(CC5CCN(c6ccc7c(n6)C(=O)N(C6CCC(=O)NC6=O)C7=O)CC5)CC4)cc3)ncc12 (centres unmarked) [Compound 188, 3-(2-(4-((4-(4-((3-((2,6-Dimethylphenyl)amino)-1-methyl-1H-pyrazolo[3,4-d]pyrimidin-6-yl)amino)phenyl)piperazin-1-yl)methyl)piperidin-1-yl)-5-oxo-5,7-dihydro-6H-pyrrolo[3,4-b]pyridin-6-yl)piperidin-2,6-one] | 0.1 to 10
